The source of these data is US5693677A, “Ceramide 3 derivatives based on monounsaturated fatty acids” (Gist-brocades N.V., priority 1994, dated 1997).

A short description of data set [1]: Thermo-gravimetric analysis (TG/DTA) of ceramides, oxidation stability. Format: physicochemical. As to conditions: 5° C./min; for Stability in thermo-gravimetric analysis: 25° to 180° C., oxygen (100 ml/min), in words. The protocol:
Thermo-gravimetry (TG) and Differential Thermo-gravimetric Analysis (DTA) were carried out using the SSC 5200 system of Seiko, provided with the TG/DTA furnaces. Standard procedures were used to obtain the desired data.
Atmosphere oxygen (100 ml/min)
Reference empty, open Pt pan
Sample size ± 5 mg powder
Sample container open Pt pan

Data set [2] is described as follows: Solubility of ceramide 3 derivatives in emollients (visual inspection, maximum concentration before cloudiness). The data set is classed as physicochemical. As to conditions: for solubility: organic solvent or mixture. The protocol:
The compound produced in Example 1, N-oleoyl phytosphingosine (also called Ceramide IIIB) was tested by solubilisation in isocetyl alcohol (Eutanol™ G16, Henkel), isostearic acid (Emersol, Henkel), triglycerides (Myritolo 318, J. Dekker), wallnut oil (J. Dekker) and avocado oil (J. Dekker).
Increasing amounts of the compound were added to the solvent and stirred under nitrogen for 30 minutes at 45° C. After cooling to room temperature (22° C.±2° C.) the solutions were kept in the dark. After 1, 24 and 48 hours the solutions were visually inspected. The maximum concentration was determined before the solution turned cloudy, indicating the presence of insoluble crystals.
The solubility of a saturated ceramide 3 derivative, N-stearoylphytosphingosine, was also determined.

For data set [3], the system named is SDS-damaged skin. The experiment in a line: Effects of ceramide IIIB formulations on SDS-damaged skin, trans-epidermal water loss (TEWL). As to conditions: 0.2 and 0.5% Ceramide IIIB. Format: in vivo, human (female volunteers). The procedure:
(§1) Measurements of trans-epidermal water loss (TEWL) were performed with the Tewameter (Courage & Khazaka, Cologne, Germany). The Tewameter is a device for measurement of water evaporation on skin surfaces based on the diffusion principle discovered by A. Fick in 1885.
(§2) after damaging the skin with SDS
(§3) 1 hour after last application on days 3, 7, 14
(§4) Five female volunteers at the age of 22-43 years with healthy skin were included in the test.
(§5) Measurements were carried out at a temperature of 22°±1° C. and a relative humidity of 60±10%. Subjects were accustomed to ambient conditions for 20 min prior to any measurement. The test was carried out on the volar forearms. The skin of the forearms was treated with a 5% aqueous solution of sodium lauryl sulphate (SDS) and an occlusive dressing applied. The dressing was removed 2 h later, and the regions gently washed with water and air-dried. After 30 min the measurements were done. Then the three test products were applied, one area remained untreated. The dose of application was about 2 mg/cm^2. In the following 14 days a home application in the morning and evening took place.
Measurements were evaluated during the treatment period on day 3, 7 and 14 one hour after the last daily application. Use of other cosmetic products was restricted on the test areas throughout the whole study.

The test system of a further data set is skin (SDS-challenge). Kind of data set: Protective effects of ceramide IIIB formulations against SDS-challenge, TEWL. Format: in vivo, human (female volunteers). As to conditions: pretreatment, in words (TEWL and skin colour). The protocol:
as §1
before start of treatment;
two hours after last application on day 7;
2 hours after irritation with SDS (2 h under occlusion).
Two panels of each five female volunteers at the age of 19-55 years with healthy skin were included in the test.
Measurements were carried out at a temperature of 22°±1° C. and a relative humidity of 60±10%. Subjects were accustomed to ambient conditions for 20 min prior to any measurement. The test was carried out on the volar forearms. Initially untreated skin was measured in all four areas to find baseline values. Then the three test products were applied, one area remained untreated. The dose of application was about 2 mg/cm^2. In the following 7 days a home application in the morning and evening took place. Measurements were evaluated during the treatment period on day 7 two hours after the last daily application. […]
The results of TEWL and skin colour measurements are presented in respectively FIGS. 5 and 6. Values are expressed as (Valueday7 -Valueday0)/Valueday0 ×100%.

For data set [4], the system named is SDS-damaged skin. The experiment in a line: Effects of ceramide IIIB formulations on SDS-damaged skin, skin humidity (corneometry). The data set is classed as in vivo, human (female volunteers). The following applies: skin pretreated with a surfactant (SDS), topical. The procedure: The corneometer CM 820 PC (Courage and Khazaka, Cologne, Germany) registers the electrical capacitance of the skin surface, which is a measure of the degree of moisture on the skin's surface. The capacitance is expressed digitally in arbitrary units (a.u.). Three measurements were performed on each test area and the mean was used to define hydration state of the stratum corneum.
as §2, §3, §4, §5
Measurements were evaluated during the treatment period on day 3, 7 and 14 one hour after the last daily application. […]

Values after ≈ are worked out from the molar mass of the structure shown. Some results are limits rather than exact numbers.

As to `CCCCCCCCCCCCCCCCCC(=O)N[C@@H](CO)[C@H](O)[C@H](O)CCCCCCCCCCCCCC` [Ceramide III, N-stearoylphytosphingosine, reference compound], in data set [1], the “Stability in thermo-gravimetric analysis” value is on record as “most stable compound as is illustrated by the absence of change of weight”. For the same compound, the solubility turned out to be 50 µg/mL (≈ 85.6 µM) in data set [2] (avocado oil); 600 µg/mL (≈ 1030 µM) in data set [2] (emersol (isostearic acid)); 1600 µg/mL (≈ 2740 µM) in data set [2] (eutanol g16 (isocetyl alcohol)); 50 µg/mL (≈ 85.6 µM) in data set [2] (myritol 318 (triglycerides)); 50 µg/mL (≈ 85.6 µM) in data set [2] (wallnut oil).

For `CCCCCCCC/C=C\CCCCCCCC(=O)N[C@@H](CO)[C@H](O)[C@H](O)CCCCCCCCCCCCCC` [Ceramide IIIB, N-oleoylphytosphingosine], the TEWL dose-response result in the data set with SDS-damaged skin [3] is “a clear dose-response effect”. The “Protection from SDS-induced skin damage” value in the data set with skin (SDS-challenge) is reported as “protects the skin from SDS-induced damage”. Further, the “Recovery of diminished water-retaining properties of skin” value in the data set with SDS-damaged skin [4] is recorded as “high capacity for recovering diminished water-retaining properties of the skin”. Besides, in data set [1], the “Stability in thermo-gravimetric analysis” value is recorded as “behaviour similar to ceramide 3, although showing a steadily increasing baseline, probably due to hydration. However, no sudden increase in weight followed by decomposition is observed”. Moreover, the solubility in data set [2] (avocado oil) was less than 200 µg/mL; in data set [2] (emersol (isostearic acid)), 8000 µg/mL (≈ 13700 µM); in data set [2] (eutanol g16 (isocetyl alcohol)), 12000 µg/mL (≈ 20600 µM); in data set [2] (myritol 318 (triglycerides)), 800 µg/mL (≈ 1370 µM); in data set [2] (wallnut oil), 200 µg/mL (≈ 344 µM). Besides, the “Solubility compared with saturated analogue” value in data set [2] (emollients, in words) is “solubilizes much better than its saturated analogue”.

Take `CCCCC/C=C\C/C=C\CCCCCCCC(=O)N[C@@H](CO)[C@H](O)[C@H](O)CCCCCCCCCCCCCC` [sample IIIA, N-linoleoylphytosphingosine]: the “Temperature at which weight increase (oxidation) followed by decomposition starts” value in data set [1] (oxygen) was “ca. 80 °C”. Besides, in data set [1], the “Stability in thermo-gravimetric analysis” value is on record as “increase in weight (oxidation) followed by decomposition”.
